In patent US6900193B1, “Structural modification of 19-norprogesterone I: 17-α-substituted-11-β-substituted-4-aryl and 21-substituted 19-norpregnadienedione as new antiprogestational agents” (The United States of America as represented by the …, priority 1996, dated 2005):

Tests used:
[1] = test system: progesterone-induced endometrial proliferation; assay: AntiMcGinty test; assay type: in vivo, rabbit; settings: for ANTIPROGESTATIONAL Anti-McGinty: relative potency, CDB-2914 = 100 (assigned), rabbit; for ANTIPROGESTATIONAL Anti-McGinty / ANTIPROGESTATIONAL ACTIVITY ANTI-MCGINITY: intraluminal; for antiprogestational activity compared with the lead compound / standard, in words: antiMcGinty (and antiClauberg), versus CDB-2914 (69B); for ANTIPROGESTATIONAL ACTIVITY ANTI-MCGINITY: estrogen-primed immature rabbits, CDB-2477 = 1.0 (assigned)
Experimental: AntiMcGinty Test (McGinty, et al., Endocrinology, 24:829-832 (1939))
Immature female rabbits of the New Zealand White breed (approx. 1 kg body weight) were maintained under standard laboratory conditions and received a subcutaneous injection of 5 μg estradiol in 10% ethanol/sesame oil daily for 6 consecutive days. Twenty-four hours after the last injection of estradiol (day 7) animals underwent sterile abdominal surgery to ligate a 3-4 cm segment of both uterine horns. The experimental compound in appropriate solvent (usually 10% ethanol/sesame oil) was injected intraluminally into the ligated segment of one uterine horn and the vehicle alone into the ligated segment of the contralateral horn. Injection volume was limited to 0.1 ml, and care was taken to prevent leakage. A stimulating dose of progesterone (0.8 mg/day) was administered subcutaneously to each rabbit daily for the next three days (days 7, 8 and 9) for the purpose of inducing endometrial proliferation. All animals were sacrificed on day 10 when a segment central to the ligatures was removed and fixed in 10% neutral buffered formalin and submitted for histological processing. Five micron sections stained with hematoxylin and eosin (H&E) were evaluated microscopically for the degree of endometrial glandular proliferation according to the method of McPhail (McPhail, J. Physiol., 83:145 (1934). The percent inhibition of endometrial proliferation for each rabbit was calculated and the mean of the group of five animals recorded.

[2] = molecular target: T1, progesterone receptor (estrogen-primed rabbit uterus) (Oryctolagus cuniculus, UniProt P06186); assay: Relative binding affinity, progesterone receptor; settings: for RELATIVE BINDING AFFINITY Progesterone / BINDING AFFINITY Progester: progesterone = 100%; for BINDING AFFINITY Progester: Table 2; for binding affinity for the progesterone receptor, in words: rabbit uterine, versus CDB-2914 (69B) where stated; for binding affinities compared with the standard, compound 69B: progesterone receptor implied (rabbit or human isoform A not specified)
T1 construct: preparation of cytosols for the progesterone and glucocorticoid receptor assays; from tissue; host or cells: uterus of estradiol-primed immature female New Zealand White rabbits (cytosol)
T1 sequence (P06186 1-930): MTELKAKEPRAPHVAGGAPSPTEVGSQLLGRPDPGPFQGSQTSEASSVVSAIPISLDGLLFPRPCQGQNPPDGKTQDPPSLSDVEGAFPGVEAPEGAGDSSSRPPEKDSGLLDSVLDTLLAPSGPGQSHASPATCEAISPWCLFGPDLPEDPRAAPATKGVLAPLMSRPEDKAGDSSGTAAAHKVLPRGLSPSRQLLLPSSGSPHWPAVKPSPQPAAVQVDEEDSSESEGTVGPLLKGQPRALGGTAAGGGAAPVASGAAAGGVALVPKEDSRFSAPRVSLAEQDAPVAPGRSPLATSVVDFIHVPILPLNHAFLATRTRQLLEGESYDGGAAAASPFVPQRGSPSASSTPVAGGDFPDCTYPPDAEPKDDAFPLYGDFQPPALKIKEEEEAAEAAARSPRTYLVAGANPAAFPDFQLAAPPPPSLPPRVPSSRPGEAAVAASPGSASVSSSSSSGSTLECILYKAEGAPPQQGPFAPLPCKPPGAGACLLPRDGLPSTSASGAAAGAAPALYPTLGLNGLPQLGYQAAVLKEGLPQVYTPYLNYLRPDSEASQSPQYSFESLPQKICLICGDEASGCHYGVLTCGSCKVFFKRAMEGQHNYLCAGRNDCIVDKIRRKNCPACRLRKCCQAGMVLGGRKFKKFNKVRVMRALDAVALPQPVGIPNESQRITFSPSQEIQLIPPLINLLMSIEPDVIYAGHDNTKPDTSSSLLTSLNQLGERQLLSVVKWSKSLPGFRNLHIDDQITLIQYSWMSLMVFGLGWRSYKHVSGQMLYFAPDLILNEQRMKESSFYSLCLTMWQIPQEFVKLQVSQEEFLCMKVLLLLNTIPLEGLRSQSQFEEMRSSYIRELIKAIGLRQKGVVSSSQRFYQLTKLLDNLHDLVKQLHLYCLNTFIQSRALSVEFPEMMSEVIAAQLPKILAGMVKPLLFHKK

| Compound | ANTIPROGESTATIONAL Anti-McGinty [1] | RELATIVE BINDING AFFINITY Progesterone ([2]; estrogen-primed rabbit uterus) | BINDING AFFINITY Progester ([2]; estrogen-primed rabbit uterus) | antiprogestational activity compared with the lead compound / standard, in words [1] | ANTIPROGESTATIONAL ACTIVITY ANTI-MCGINITY [1] | binding affinity for the progesterone receptor, in words [2] | binding affinities compared with the standard, compound 69B [2] | RELATIVE BINDING AFFINITY Progesterone ([2]; Table 3, immature estrogen-primed rabbit uterus) |
| --- | --- | --- | --- | --- | --- | --- | --- | --- |
| CC(=O)OCC(=O)[C@@]1(OC(C)=O)CCC2C3CCC4=CC(=O)CCC4=C3C(c3ccc(N(C)C)cc3)C[C@@]21C (stereo partly drawn) [Compound 15, 17α,21-diacetoxy-11β-[4-(N,N-dimethylamino)phenyl]-19-norpregna-4,9-diene-3,20-dione] | 300 | 103% |  |  |  |  |  |  |
| COCC(=O)C1(OC(C)=O)CCC2C3CCC4=CC(=O)CCC4=C3C(c3ccc(N4CCCCC4)cc3)CC21C (stereo not drawn) [Compound 123a, 17α-Acetoxy-1113-[4-(N-piperidino)phenyl]-21-methoxy-19-norpregna-4,9-diene-3,20-dione] |  |  | 174% |  |  |  |  |  |
| CC(=O)O[C@]1(C(=O)CO)CCC2C3CCC4=CC(=O)CCC4=C3C(c3ccc(N(C)C)cc3)C[C@@]21C (stereo partly drawn) [Compound 41, 17α-acetoxy-21-hydroxy-11β-[4-(N,N-dimethylamino)phenyl]-19-norpregna-4,9-diene-3,20-dione] |  | 62% |  |  |  |  |  |  |
| CC#C[C@]1(O)CC[C@H]2[C@@H]3CCC4=CC(=O)CCC4=C3[C@@H](c3ccc(N(C)C)cc3)C[C@@]21C [mifepristone] |  |  |  | more potent than the standard | 1.0 | greater binding affinity |  |  |
| CC(=O)O[C@]1(C(C)=O)CC[C@H]2[C@@H]3CCC4=CC(=O)CCC4=C3[C@@H](c3ccc(N4CCCCC4)cc3)C[C@@]21C [Compound 71, 17α-Acetoxy-11β-[4(N-Piperidino)phenyl]-19-norpregna-4,9-diene-3,20-dione] |  |  | 123% |  |  |  | binding affinities greater than that observed for the standard |  |
| COCC(=O)[C@@]1(OC)CC[C@H]2[C@@H]3CCC4=CC(=O)CCC4=C3[C@@H](c3ccc(N(C)C)cc3)C[C@@]21C [Compound 113a, 17α,21-Dimethoxy-11β-[4-(N,N-dimethylamino)phenyl]-19-norpregna-4,9-diene-3,20-dione] |  |  | 117% |  |  | high binding affinity | binding affinities greater than that observed for the standard |  |
| CC(=O)O[C@]1(C(C)=O)CC[C@H]2[C@@H]3CCC4=CC(=O)CCC4=C3[C@@H](c3ccc(N(C)C)cc3)C[C@@]21C [Compound 69B, 17α-acetoxy-11β-(4-N,N-dimethylaminophenyl)-19-norpregna-4,9-diene-3,20-dione, reference compound] | 100 | 122% | 122% |  | 0.56 |  |  | 114- % |
| CN(C)c1ccc(C2CC3(C)C(CCC34OCC4=O)C3CCC4=CC(=O)CCC4=C23)cc1 (stereo not drawn) [Compound 12, 17-Spirooxetano-3′-oxo-11β-[4-(N,N-dimethylamino)phenyl]-19-norpregna-4,9-dien-3-one] | 26 | 261% |  |  |  |  | binding affinities greater than that observed for the standard |  |
| CC(=O)O[C@]1(C(=O)CF)CCC2C3CCC4=CC(=O)CCC4=C3C(c3ccc(N(C)C)cc3)C[C@@]21C (stereo partly drawn) [Compound 13, 17α-acetoxy-21-fluoro-11β-[4-(N,N-dimethylamino)phenyl]-19-norpregna-4,9-diene-3,20-dione] | 103 | 125% |  | did not show significant differences |  | did not show significant differences | binding affinities greater than that observed for the standard |  |
| CC(=O)OCC(=O)[C@@]1(OC(C)=O)CC[C@H]2[C@@H]3CCC4=CC(=O)CCC4=C3[C@@H](c3ccc(C(C)=O)cc3)C[C@@]21C [Compound 106b, 17α,21-Diacetoxy-11β-(4-acetylphenyl)19-norpregna-4,9-diene-3,20-dione] |  |  | 136% |  |  |  | binding affinities greater than that observed for the standard |  |
| CC(=O)O[C@]1(C(=O)CCl)CCC2C3CCC4=CC(=O)CCC4=C3C(c3ccc(N(C)C)cc3)C[C@@]21C (some centres unmarked) [Compound 14A] | 75 | 127% |  | did not show significant differences |  | did not show significant differences | binding affinities greater than that observed for the standard |  |
